Source: US20100255054A1, “PHARMACEUTICAL COMPOSITION FOR TREATMENT AND PREVENTION OF RESTENOSIS” (priority 2006, published 2010)

Columns and labels:
cyclin E = experiment: Western blot of cyclin E expression in vascular smooth muscle cells; type: cell-based, rat; conditions: 0.5 μM, compared with the control group, FIG. 4B
Description: (§1) For vascular smooth muscle cell cultivation, vascular smooth muscle cells were isolated from rat aorta and they were primarily cultured. The vascular smooth muscle cells were cultured and grown in a culture solution containing 20% fetal bovine serum (FBS) at 37° C. under 5% CO2. The cells obtained in this process were transferred to a new culture plate for experiments. The cells used in the experiments were initial cells which had been subcultured 4 to 7 times. In order to activate NQO1, the vascular smooth muscle cells, when the cell mass reached 80 to 90%, were cultured in a medium containing 0.5% fetal bovine serum for 24 hours to keep the cells in the resting state. Such cells were treated with the compound of Example 1 (hereinafter, referred to as Compound 1).
(§2) The vascular smooth muscle cells collected after reacting with Compound 1 were lysed in RIPA buffer (50 mM Tris-HCl, 150 mM NaCl, 5 mM EDTA, 1% NP-40, 1 mM PMSF, 1 mM […], and 1 mg/ml protease inhibitor) to isolate whole proteins. The isolated proteins of each sample were quantified. 25 μg of the proteins were mixed with a sample buffer and boiled for 5 minutes. The boiled proteins were cooled and subjected to electrophoresis on a sodium dodecyl sulfate polyacrylamide gel, thereby separating the proteins by their sizes. […]

[1] = tested on: cyclin dependent kinase (CDK); experiment: Western blot of CDK in vascular smooth muscle cells; type: cell-based, rat; conditions: 0.5 μM, FIG. 4B
Description: as §1, §2

AMPK = experiment: Western blot of phosphorylated AMPK in vascular smooth muscle cells; type: cell-based, rat; conditions: 0.5 μM
Description: as §1
The vascular smooth muscle cells collected after reacting with Compound 1 were lysed in RIPA buffer (50 mM Tris-HCl, 150 mM NaCl, 5 mM EDTA, 1% NP-40, 1 mM PMSF, 1 mM […], and 1 mg/ml protease inhibitor) to isolate whole proteins. The isolated proteins of each sample were quantified. 25 μg of the proteins were mixed with a sample buffer and boiled for 5 minutes. The boiled proteins were cooled and subjected to electrophoresis on a sodium dodecyl sulfate polyacrylamide gel, thereby separating the proteins by their sizes. These proteins were again transferred to PVDF membrane and immunoreacted with antibodies against pAMPK, pACC, p53, p21, CDK and pRb to confirm the protein expression. In addition, in order to verify whether an equal amount of protein was used, the proteins were reacted with anti-β-actin.
Primary cultures of vascular smooth muscle cells were kept in the resting state and then treated with 0.5 μM of Compound 1. After reacting them for a predetermined period of time, the cells were collected to perform western blot. Quantification was carried out using antibodies specific for phosphorylated AMPK and Acetyl-CoA carboxylase (ACC), and for β-actin. The results were confirmed through three or more repeating experiments.

rats = experiment: Lipogenesis in vessels (Oil Red O staining of aortic valve and abdominal aorta); type: in vivo, rat
Text: The animals were killed to isolate their hearts and abdominal aortas, and they were fixed in 4% formalin, respectively. The fixed heart tissue was immersed in an isotonic sucrose solution, and then stored in a freezer by embedding in an OCT compound. Meanwhile, the fixed abdominal aorta was incised lengthwise and prepared such that the internal vessel was exposed. The frozen heart tissue was sectioned into a thickness of 20 μm and attached onto a coating slide, while the abdominal aorta was immersed in an Oil Red O solution to perform Oil Red O staining, and they were observed.
Rats administered with 25 mg/kg and 50 mg/kg of Compound 1, respectively, for 4 weeks had been killed, and their hearts and abdominal aortas were extracted to prepare frozen sections. The prepared sections were stained with Oil Red O, and a degree of lipid accumulation on the inner vessel wall and aortic valve was compared/observed.
A (upper part of FIG. 7) is an aortic valve and B (bottom part of FIG. 7) is an abdominal aorta. The experiments were repeated three times to confirm the results.

SD rats = experiment: Intimal hyperplasia after balloon angioplasty (H&E staining); type: in vivo, rat; conditions: 100 mg/kg in diet
Description: SD rats were used for performing balloon angioplasty. Animals were housed in a breeding room maintained at a constant temperature of 22±2° C. and a 12-h light/dark (UD) cycle. The animals were divided into two groups, i.e., a control group with administration of general diet and an experiment group with administration of 100 mg/kg of Compound 1, having 4 animals in each group. The 4 animals in each group were raised in separate cages for each animal for 4 weeks, during which experiments were carried out. The animals were raised for 2 weeks before performing balloon angioplasty and 2 weeks after performing balloon angioplasty while continuing the dietary intake of the general diet and Compound 1 diet. Thereafter, their aortas were isolated to confirm hyoerplasia by means of H&E (hematoxylin and eosin) staining.
14 days after performing balloon angioplasty, the carotid artery was extracted from a rat. After staining the carotid artery by H&E staining, vessel intimal hyperplasia was observed. The results are presented in FIG. 6. a is a control group, b is a vessel intima after performing balloon angioplasty in the general dietary group, c is a vessel intima after performing balloon angioplasty in the 100 mg/kg of Compound 1 administration group, and d is a control group in the 100 mg/kg of Compound 1 administration group, without performing balloon angioplasty.

NQO1 = experiment: RT-PCR of NQO1 expression in vascular smooth muscle cells; type: cell-based, rat; conditions: 0.5 μM, compared with the control group, FIG. 2
Description: A study was conducted to investigate effects of Compound 1 on the expression of NQ01 as in the following. Primary cultures of vascular smooth muscle cells were kept in the resting state and then treated with 0.5 μM of Compound 1. After reacting them for a predetermined period of time, RNA was extracted from the cells using trizol. Thereafter, DNA was amplified using NQO1 primer and then subjected to electrophoresis to confirm the expression level of NQO1.

cyclin D = experiment: Western blot of cyclin D expression in vascular smooth muscle cells; type: cell-based, rat; conditions: 0.5 μM, compared with the control group, FIG. 4B
Description: as §1, §2

[2] = tested on: vascular smooth muscle cells; experiment: Cell cycle analysis by FACS (PI staining); type: cell-based, rat; conditions: 0.5 μM Compound 1 + PDGF and insulin, 48 hours (PDGF and insulin only: 57%), FIG. 5C
Description: as §1
FACS was used for cell cycle analysis. The vascular smooth muscle cells incubated in a medium containing 0.5% fetal bovine serum for 24 hours were pretreated with Compound 1 for 2 hours. The cells were treated with PDGF and insulin to induce cell proliferation and reacted for 48 hours. Thereafter, the cells were collected and passed through fixation process, followed by nuclear staining with propidium iodide (PI). Then, the cell cycle was analyzed using FACS.
Primary cultures of vascular smooth muscle cells were treated with 0.5 μM of Compound 1, followed by reacting with PDGF and insulin for 48 hours. […]

p53 = experiment: Western blot of p53 expression in vascular smooth muscle cells; type: cell-based, rat; conditions: 0.5 μM, FIG. 4A
Description: as §1, §2

cyclin B = experiment: Western blot of cyclin B expression in vascular smooth muscle cells; type: cell-based, rat; conditions: 0.5 μM, compared with the control group, FIG. 4B
Description: as §1, §2

[3] = tested on: vascular smooth muscle cells; experiment: Vascular smooth muscle cell proliferation (PDGF-induced, WST cell counting kit); type: cell-based, rat
Description: as §1, with “Such cells were treated with the compound of Example 1 (hereinafter, referred to as Compound 1).” left out
Primary cultures of vascular smooth muscle cells were seeded onto 96-well plates, cultured to reach cell mass of 70%, and transferred and again cultured in a medium containing 0.5% fetal bovine serum for 24 hours. […] After further reacting for 4 hours, absorbencies were measured at 450 nm using an ELISA reader to examine the cell proliferation rate.
In order to determine the effects of Compound 1 on vascular smooth muscle cell proliferation, the cells cultured in a 96-well plate were kept in the resting state, followed by pre-treating them with Compound 1 by varying the concentration, and by reacting them with PDGF for 48 hours. The number of living cells was counted using a WST cell counting kit. […]

[4] = tested on: Acetyl-CoA carboxylase (ACC); experiment: Western blot of phosphorylated ACC in vascular smooth muscle cells; type: cell-based, rat; conditions: 0.5 μM, compared with the control group, FIG. 3
Description: as §1
as §2, with “minutes.” for “minutes. The boiled proteins were cooled and subjected to electrophoresis on a sodium dodecyl sulfate polyacrylamide gel, thereby separating the proteins by their sizes.”
Primary cultures of vascular smooth muscle cells were kept in the resting state and then treated with 0.5 μM of Compound 1. […] Quantification was carried out using antibodies specific for phosphorylated AMPK and Acetyl-CoA carboxylase (ACC), and for β-actin. […]

p21 = experiment: Western blot of p21 expression in vascular smooth muscle cells; type: cell-based, rat; conditions: 0.5 μM, FIG. 4A
Description: as §1, §2

Structure (SMILES): CC1(C)CCC2=C(O1)c1ccccc1C(=O)C2=O [Compound 1, β-lapachone]
- expression level of cyclin E (cyclin E): significantly low
- CDK activation [1]: activated through phosphorylation
- time after treatment at which phosphorylated AMPK could be observed (AMPK): 1 h
- time for which phosphorylated AMPK lasted (AMPK): 6 h
- AMPK phosphorylation (AMPK; compared with the control group, FIG. 3): increased
- lipogenesis in aortic valve and abdominal aorta (rats; 25 mg/kg and 50 mg/kg for 4 weeks, Oil Red O, FIG. 7): inhibited
- blood flow level in the heart and abdominal aorta (rats; about 50 mg/kg for 4 weeks): approximately the same as that of the normal rats
- intima/media ratio (SD rats; 14 days after balloon angioplasty (general dietary group: 2.5)): 1
- intimal hyperplasia in the vessel (SD rats; 14 days after balloon angioplasty, FIG. 6 c): low rate of intimal hyperplasia
- expression level of NQO1 (NQO1): significantly higher
- expression level of cyclin D (cyclin D): significantly low
- G1 phase (percentage of cells) [2]: 62%
- expression level of p53 (p53): did not increase largely
- expression level of cyclin B (cyclin B): significantly low
- concentration dependence of the reduction in the number of vascular smooth muscle cells ([3]; Compound 1 pre-treatment at varying concentration, PDGF 48 hours): concentration-dependent
- number of vascular smooth muscle cells (living cells) ([3]; PDGF + Compound 1 compared with PDGF only, 48 hours, FIG. 1): significantly low
- ACC phosphorylation [4]: decreased
- expression of p21 (p21): increased in a great amount
